From paper PMC5011342, “A high throughput drug screening assay to identify compounds that promote oligodendrocyte differentiation using acutely dissociated and purified oligodendrocyte precursor cells” (BMC Research Notes, 2016)
Where two headings read alike, the source gives them in different places.

Tests used:
[1] = system: acutely dissociated and purified rat OPCs; assay: Acute OL differentiation assay (MBP expression/cell, immunofluorescent image quantification); assay type: cell-based; settings: sheet "All OLga data"
Summary of the method: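 This acute differentiation assay used purified rat OPCs from postnatal day 6–7 pups, seeded into PDL/laminin-coated 96-well plates in differentiation medium lacking PDGF and FGF. Compounds were applied in quadruplicate after a 1–2 h preincubation at 37 °C, 10 % CO2, with 0.1 % DMSO negative and 40 ng/ml T3 positive controls in eight wells. After fixation on DIV4, anti-MBP immunofluorescence images yielded MBP expression/cell.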

[2] = system: expanded OPCs; assay: cells; settings: for viability at 0.1 µM / viability at 1 µM / viability at 10 µM: Rattus norvegicus, 72 h
Summary of the method: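 Toxicity screen: compounds added at 0.1, 1 and 10 µM to PDGF-AA-expanded OPCs in 96-well plates, 3-day incubation at 37 °C, 10% CO2, then alamarBlue 1:10 for 4 h with fluorescence readout. Results set screening doses of 10/2, 2/0.4 or 0.4/0.08 µM.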

[3] = Rattus norvegicus, test compound at 2 uM, NCC library screen, relative to quetiapine, read-out: 2 uM (% Quet)
[4] = Rattus norvegicus, test compound at 10 uM, NCC library screen, relative to quetiapine, read-out: 10 uM (% Quet)
[5] = alamarBlue viability of expanded OPCs, compound at 0.1 µM, relative to DMSO control
[6] = alamarBlue viability of expanded OPCs, compound at 1 µM, relative to DMSO control
[7] = alamarBlue viability of expanded OPCs, compound at 10 µM, relative to DMSO control
[8] = Rattus norvegicus, 2 uM test compound, relative to quetiapine, read-out: OL differentiation, 2 uM (% Quet)
[9] = Rattus norvegicus, 10 uM test compound, relative to quetiapine, read-out: OL differentiation, 10 uM (% Quet)
[10] = read-out: 0.1 µM (% DMSO), alamarBlue viability of expanded OPCs, compound at 0.1 µM, sheet All Tox data
[11] = read-out: 1 µM (% DMSO), alamarBlue viability of expanded OPCs, compound at 1 µM, sheet All Tox data
[12] = read-out: 10 µM (% DMSO), alamarBlue viability of expanded OPCs, compound at 10 µM, sheet All Tox data
[13] = Rattus norvegicus, test compound at 2 uM, MBP expression relative to quetiapine, NCC library screen, read-out: 2 uM (% Quet)
[14] = Rattus norvegicus, test compound at 10 uM, MBP expression relative to quetiapine, NCC library screen, read-out: 10 uM (% Quet)
[15] = read-out: 0.1 µM (% DMSO), alamarBlue viability, NCC library compound at 0.1 µM, sheet "All Tox data"
[16] = read-out: 1 µM (% DMSO), alamarBlue viability, NCC library compound at 1 µM, sheet "All Tox data"
[17] = read-out: 10 µM (% DMSO), alamarBlue viability, NCC library compound at 10 µM, sheet "All Tox data"
[18] = Rattus norvegicus, 0.4 uM test compound, relative to quetiapine, read-out: OL differentiation, 0.4 uM (% Quet)

Structure (SMILES) | 0.1 µM (% DMSO) [2, 5] [% DMSO] | 1 µM (% DMSO) [2, 6] [% DMSO] | 10 µM (% DMSO) [2, 7] [% DMSO] | activation at 2 µM [1, 8] [%] | activation at 10 µM [1, 9] [%] | viability at 0.1 µM [2, 10] [%] | viability at 1 µM [2, 11] [%] | viability at 10 µM [2, 12] [%] | activation at 2 µM [1, 13] [%] | activation at 10 µM [1, 14] [%] | other results
Cc1cccc(Nc2ccccc2C(=O)O)c1C [Mefenamic Acid] | 92.7 | 91.8 | 83.6 |  |  |  |  |  |  |  | activation at 2 µM [1, 3]: -4%; activation at 10 µM [1, 4]: -22.3%
OC(c1cc(C(F)(F)F)nc2c(C(F)(F)F)cccc12)C1CCCCN1 (stereo not shown) [Mefloquine] | 39.0 | 11.0 | 7.4 |  |  |  |  |  |  |  | activation at 0.08 µM ([1]; Rattus norvegicus, test compound at 0.08 uM, MBP expression relative to quetiapine, NCC library screen, read-out: 0.08 uM (% Quet)): -20.5%; activation at 0.4 µM ([1]; Rattus norvegicus, test compound at 0.4 uM, MBP expression relative to quetiapine, NCC library screen, read-out: 0.4 uM (% Quet)): -134%
CC(=O)O[C@]1(C(C)=O)CC[C@H]2[C@@H]3C=C(C)C4=CC(=O)CC[C@]4(C)[C@H]3CC[C@@]21C [Megestrol acetate] |  |  |  | -21.6 | -29.4 | 97.2 | 89.3 | 96.5 |  |  | 
Cc1cnc(NC(=O)C2=C(O)c3ccccc3S(=O)(=O)N2C)s1 [Meloxicam] | 93.1 | 94.6 | 86.1 |  |  |  |  |  | -8.5 | 1.4 | 
CC1CCN(CCCC(=O)c2ccc(F)cc2)CC1.Cl [Melperone hydrochloride] |  |  |  |  |  |  |  |  |  |  | 2 uM (% Quet) ([1]; test compound at 2 uM, NCC library screen, relative to quetiapine): 39.6 % Quet; 10 uM (% Quet) ([1]; test compound at 10 uM, NCC library screen, relative to quetiapine): 43.4 % Quet; 0.1 µM (% DMSO) ([2]; alamarBlue viability, NCC library compound at 0.1 µM, sheet "All Tox data"): 105.5 % DMSO; 1 µM (% DMSO) ([2]; alamarBlue viability, NCC library compound at 1 µM, sheet "All Tox data"): 130.9 % DMSO; 10 µM (% DMSO) ([2]; alamarBlue viability, NCC library compound at 10 µM, sheet "All Tox data"): 151.7 % DMSO
CC12CC3CC(C)(C1)CC(N)(C3)C2 [Memantine] | 93.3 | 84.1 | 67.0 | -9.2 | -28.3 | 97.8 | 93.2 | 59.7 | -64.4 | -100 | 
Cc1cccc(C)c1NC(=O)C1CCCCN1C (stereo not shown) [Mepivacaine] |  |  |  |  |  |  |  |  |  |  | activation at 2 µM [1, 3]: -6.4%; activation at 10 µM [1, 4]: -0.9%; viability at 0.1 µM [2, 15]: 89.5%; viability at 1 µM [2, 16]: 89.9%; viability at 10 µM [2, 17]: 79.7%
Sc1ncnc2nc[nH]c12 [Mercaptopurine] | 92.3 | 92.7 | 95.9 |  |  |  |  |  | 3.6 | -5.6 | 
C[C@@H](O)[C@H]1C(=O)N2C(C(=O)O)=C(S[C@@H]3CN[C@H](C(=O)N(C)C)C3)[C@H](C)[C@H]12 [Meropenem] |  |  |  | -4.2 | 2.8 | 95.8 | 98.1 | 102 |  |  | 
Nc1ccc(O)c(C(=O)O)c1 [Mesalamine] |  |  |  | -9.1 | -0.34 | 86.2 | 92.2 | 87.2 |  |  | 
O=S(=O)(O)CCS [Mesna] | 92.5 | 91.3 | 100.9 |  |  |  |  |  | -46 | -38.6 | 
CN1CCCCC1CCN1c2ccccc2Sc2ccc([S+](C)[O-])cc21 (stereo not shown) [Mesoridazine] |  |  |  | -3.1 |  | 82.1 | 76.6 | 28.3 |  |  | activation at 0.4 µM [1, 18]: 6.6%
C[C@]12CCC(=O)C[C@@H]1CC[C@@H]1[C@@H]2CC[C@@]2(C)[C@H]1CC[C@]2(C)O [Mestanolone] |  |  |  | 0.8 | -18 | 102 | 94.1 | 120 |  |  | 
C#C[C@]1(O)CC[C@H]2[C@@H]3CCc4cc(OC)ccc4[C@H]3CC[C@@]21C [Mestranol] |  |  |  | 92.5 | -6.7 |  |  |  |  |  | viability at 0.1 µM [2, 15]: 102%; viability at 1 µM [2, 16]: 103%; viability at 10 µM [2, 17]: 114%
CC(C)NCC(O)c1cc(O)cc(O)c1 (stereo not shown) [Metaproterenol] | 89.2 | 91.6 | 91.1 |  |  |  |  |  | -0.7 | 3.5 | 
C[C@]12CC[C@H](O)CC1=CC[C@@H]1[C@@H]2CC[C@@]2(C)[C@H]1CC[C@]2(C)O [Methandriol] |  |  |  | 4.1 | -0.6 | 91.2 | 87.5 | 88 |  |  | 
CC(=O)/N=c1/sc(S(N)(=O)=O)nn1C [Methazolamide] | 90.9 | 92.5 | 88.3 |  |  |  |  |  | -29 | -40 | 
Cn1cc[nH]c1=S [Methimazole] | 88.3 | 90.9 | 85.4 |  |  |  |  |  | -0.16 | -20.4 | 
COc1ccccc1OCC(O)COC(N)=O (stereo not shown) [Methocarbamol] | 89.9 | 92.3 | 88.1 |  |  |  |  |  |  |  | activation at 2 µM [1, 3]: 2.8%; activation at 10 µM [1, 4]: -3.7%
CN(Cc1cnc2nc(N)nc(N)c2n1)c1ccc(C(=O)N[C@@H](CCC(=O)O)C(=O)O)cc1 [Methotrexate] |  |  |  | 4.9 |  | 77.9 | 68.5 | 52.8 |  |  | activation at 0.4 µM [1, 18]: -11%
COc1c2occc2cc2ccc(=O)oc12 [Methoxsalen] | 88.8 | 90.5 | 85.4 |  |  |  |  |  | -13.9 | -33.3 | 
C[C@](N)(Cc1ccc(O)c(O)c1)C(=O)O [Methyldopa] | 100.4 | 86.9 | 63.4 |  |  |  |  |  |  |  | activation at 2 µM [1, 3]: -37.7%; activation at 10 µM [1, 4]: -93.8%
CC(=O)OCC(=O)[C@@]1(O)CC[C@H]2[C@@H]3C[C@H](C)C4=CC(=O)C=C[C@]4(C)[C@H]3[C@@H](O)C[C@@]21C [Methylprednisolone acetate] | 106.9 | 104.6 | 95.3 |  |  |  |  |  | 3.6 | -59.5 | 
C[C@H]1C[C@@H]2[C@H]([C@@H](O)C[C@@]3(C)[C@H]2CC[C@]3(O)C(=O)CO)[C@@]2(C)C=CC(=O)C=C12 [Methylprednisolone] | 115.7 | 111.5 | 102.3 |  |  |  |  |  | -2.6 | -32.2 | 
C[C@]12CCC(=O)C=C1CC[C@@H]1[C@@H]2CC[C@@]2(C)[C@H]1CC[C@]2(C)O [Methyltestosterone] |  |  |  | -8.1 | -36.5 | 103 | 112 | 102 |  |  | 
CCN(CC)CCNC(=O)c1cc(Cl)c(N)cc1OC [Metoclopramide] | 108.4 | 109.6 | 116.8 |  |  |  |  |  |  |  | activation at 2 µM [1, 3]: -21.4%; activation at 10 µM [1, 4]: -26.2%
Cc1ncc([N+](=O)[O-])n1CCO [Metronidazole] |  |  |  | 0.09 | 24.8 | 84.6 | 88.7 | 79.3 |  |  | 
CC(C)(C(=O)c1cccnc1)c1cccnc1 [Metyrapone] | 90.5 | 94.0 | 93.4 |  |  |  |  |  | 9.9 | -15 | 
